{"source": "patent US20050276862A1", "about": "“Iron sequestering antimicrobial composition” (priority 2004, published 2005)", "test": "Log stability constants of ligands for metal ions (literature)", "settings": "Fe(III) minus Ca", "source_text": "A measure of the “affinity” of metal-ion sequestrants for various metal-ions is given by the stability constant (also often referred to as critical stability constants, complex formation constants, equilibrium constants, or formation constants) of that sequestrant for a given metal-ion. […] The ability of a specific molecule or ligand to sequester a metal-ion may depend also upon the pH, the concentrations of interfering ions, and the rate of complex formation (kinetics). Generally, however, the greater the stability constant, the greater the binding affinity for that particular metal-ion. Often the stability constants are expressed as the natural logarithm of the stability constant. Herein the stability constant for the reaction of a metal-ion (M) and a sequestrant or ligand (L) is defined as follows: M+n L⇄MLn\nwhere the stability constant is βn=[MLn]/[M][L]^n, wherein [MLn] is the concentration of “complexed” metal-ion, [M] is the concentration of free (uncomplexed) metal-ion and [L] is the concentration of free ligand. The log of the stability constant is log βn, and n is the number of ligands which coordinate with the metal. It follows from the above equation that if βn is very large, the concentration of “free” metal-ion will be very low. […]", "data": [{"smiles": "O=C(O)CN(CCN(CC(=O)O)CC(=O)O)CCN(CC(=O)O)CC(=O)O", "note": "[DTPA, diethylenetriaminepentaacetic acid]", "values": [{"measurement": "difference between the log stability constants (specificity)", "result": 17.2}]}]}
